Target: T1, human cardiac ion channel proteins hKir3.1/Kir3.4 (Homo sapiens, UniProt P48544+P48549)
T1 construct: expressed in transfected cells
T1 sequence (P48549 1-501): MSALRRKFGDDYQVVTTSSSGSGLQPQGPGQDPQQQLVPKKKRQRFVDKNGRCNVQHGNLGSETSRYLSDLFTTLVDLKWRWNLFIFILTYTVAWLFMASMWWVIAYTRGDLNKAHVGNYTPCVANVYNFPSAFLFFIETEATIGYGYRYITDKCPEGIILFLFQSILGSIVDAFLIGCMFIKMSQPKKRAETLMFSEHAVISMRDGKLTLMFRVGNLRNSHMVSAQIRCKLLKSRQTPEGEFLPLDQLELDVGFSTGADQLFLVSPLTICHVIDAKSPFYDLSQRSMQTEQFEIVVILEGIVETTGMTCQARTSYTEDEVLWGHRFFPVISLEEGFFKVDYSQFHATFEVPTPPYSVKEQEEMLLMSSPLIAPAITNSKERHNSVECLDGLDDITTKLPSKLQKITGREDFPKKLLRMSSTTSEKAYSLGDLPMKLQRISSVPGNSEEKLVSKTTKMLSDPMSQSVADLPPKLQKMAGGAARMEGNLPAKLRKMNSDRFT
T1 sequence (P48544 1-419): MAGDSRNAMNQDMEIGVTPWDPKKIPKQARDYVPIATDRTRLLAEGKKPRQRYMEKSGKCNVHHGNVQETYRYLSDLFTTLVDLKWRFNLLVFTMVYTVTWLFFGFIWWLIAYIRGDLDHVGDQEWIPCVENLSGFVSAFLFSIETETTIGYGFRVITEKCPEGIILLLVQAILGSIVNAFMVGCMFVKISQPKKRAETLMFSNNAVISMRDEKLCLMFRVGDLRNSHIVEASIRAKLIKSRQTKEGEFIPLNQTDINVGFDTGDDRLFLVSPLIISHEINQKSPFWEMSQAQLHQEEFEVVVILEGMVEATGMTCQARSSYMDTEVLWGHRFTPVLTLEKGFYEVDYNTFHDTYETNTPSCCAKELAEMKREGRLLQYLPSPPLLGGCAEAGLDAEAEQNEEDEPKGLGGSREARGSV
Assay: Atomic Absorption Screening (AAS) Rb efflux assay of hKir3.1/Kir3.4 block, carbachol/high K+ stimulated, 10-pt or 7-pt CR
Type: cell-based
Settings: 10-pt CR (0.003 to 67 μmol/L), AAS Rb efflux, CHO-K1 cells expressing hKir3.1/Kir3.4; mean of >4 replicates; read-out: IKACh IC50 10-pt CR, AAS
Procedure, shortened: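 CHO-K1 cells stably co-expressing human Kir3.1/Kir3.4 were Rb-loaded for 3 h at 37° C, preincubated with compound 5 min at RT, then stimulated 10 min with 10 μM carbachol plus 20 mM KCl (final). Supernatant Rb was measured by atomic absorption. Compounds ran at 0.003–67 μmol/L (10-pt) or 0.037–27 μmol/L (7-pt), threefold dilutions; IC50s are means of >4 or >3 replicates respectively.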

| SMILES | IC50 |
| --- | --- |
| CN(C(=O)c1ccc(OC(F)F)cc1)[C@@H](CN1CC(O)C1)C1CCC1 [Example 35.3, N-[(1R)-1-Cyclobutyl-2-(3-hydroxyazetidin-1-yl)ethyl]-4-(difluoromethoxy)-N-methylbenzamide] | 8700 nM |
| Cc1cc(C(=O)N(C)[C@@H](CN2CC(O)C2)C2CCC2)ccc1F [Example 35.4, N-[(1R)-1-Cyclobutyl-2-(3-hydroxyazetidin-1-yl)ethyl]-4-fluoro-N,3-dimethylbenzamide] | 660 nM |
| CN(C(=O)c1ccc(F)cc1)[C@@H](CN1CC(O)C1)C1CCC1 [Example 35.5, N-[(1R)-1-Cyclobutyl-2-(3-hydroxyazetidin-1-yl)ethyl]-4-fluoro-N-methylbenzamide] | 11000 nM |
| CN(C(=O)c1ccc(F)cc1Cl)[C@@H](CN1CC(O)C1)C1CCC1 [Example 35.6, 2-Chloro-N-[(1R)-1-cyclobutyl-2-(3-hydroxyazetidin-1-yl)ethyl]-4-fluoro-N-methylbenzamide] | 4600 nM |
| CN(C(=O)c1ccc(F)c(F)c1)[C@@H](CN1CC(O)C1)C1CCC1 [Example 35.7, N-[(1R)-1-Cyclobutyl-2-(3-hydroxyazetidin-1-yl)ethyl]-3,4-difluoro-N-methylbenzamide] | 3900 nM |
| CN(C(=O)c1cccc(C(F)F)c1)[C@@H](CN1CC(O)C1)C1CCC1 [Example 35.8, N-[(1R)-1-Cyclobutyl-2-(3-hydroxyazetidin-1-yl)ethyl]-3-(difluoromethyl)-N-methylbenzamide] | 8000 nM |
| CN(C(=O)c1ccc(F)c(C#N)c1)[C@@H](CN1CC(O)C1)C1CCC1 [Example 35.9, 3-Cyano-N-[(1R)-1-cyclobutyl-2-(3-hydroxyazetidin-1-yl)ethyl]-4-fluoro-N-methylbenzamide] | 4600 nM |
| CN(C(=O)c1ccc(F)cc1F)[C@@H](CN1CC(O)C1)C1CCC1 [Example 35.10, N-[(1R)-1-Cyclobutyl-2-(3-hydroxyazetidin-1-yl)ethyl]-2,4-difluoro-N-methylbenzamide] | 15000 nM |
| CN(C(=O)c1cccc(Cl)c1F)[C@@H](CN1CC(O)C1)C1CCC1 [Example 35.11, 3-Chloro-N-[(1R)-1-cyclobutyl-2-(3-hydroxyazetidin-1-yl)ethyl]-2-fluoro-N-methylbenzamide] | 4800 nM |
| COc1ccc(C(=O)N(C)[C@@H](CN2CC(O)C2)C2CCC2)c(F)c1 [Example 35.12, N-[(1R)-1-Cyclobutyl-2-(3-hydroxyazetidin-1-yl)ethyl]-2-fluoro-4-methoxy-N-methylbenzamide] | 16000 nM |
| COc1ccc(C(=O)N(C)[C@@H](CN2CC(O)C2)C2CCC2)cc1F [Example 35.13, N-[(1R)-1-Cyclobutyl-2-(3-hydroxyazetidin-1-yl)ethyl]-3-fluoro-4-methoxy-N-methylbenzamide] | 11000 nM |
| CN(C(=O)c1ccccc1)[C@@H](CN1CC(O)C1)C1CCC1 [Example 35.14, N-[(1R)-1-Cyclobutyl-2-(3-hydroxyazetidin-1-yl)ethyl]-N-methylbenzamide] | 13000 nM |
| CN(C(=O)c1ccc(C#N)cc1)[C@H](CN1CC(O)C1)C1CCCCC1 [Example 36.1, 4-cyano-N-[(1S)-1-cyclohexyl-2-(3-hydroxyazetidin-1-yl)ethyl]-N-methylbenzamide] | 410 nM |
| CN(C(=O)c1ccc(Cl)cc1)[C@H](CN1CC(O)C1)C1CCCCC1 [Example 36.2, 4-Chloro-N-[(1S)-1-cyclohexyl-2-(3-hydroxyazetidin-1-yl)ethyl]-N-methylbenzamide] | 49 nM |
| CN(C(=O)c1cccc(C#N)c1)[C@H](CN1CC(O)C1)C1CCCCC1 [Example 36.3, 3-Cyano-N-[(1S)-1-cyclohexyl-2-(3-hydroxyazetidin-1-yl)ethyl]-N-methylbenzamide] | 920 nM |
| CN(C(=O)c1ccc(C#N)cc1F)[C@H](CN1CC(O)C1)C1CCCCC1 [Example 36.4, 4-Cyano-N-[(1S)-1-cyclohexyl-2-(3-hydroxyazetidin-1-yl)ethyl]-2-fluoro-N-methylbenzamide] | 330 nM |
| CN(C(=O)c1ccc(C(C)(C)C#N)cc1)[C@H](CN1CC(O)C1)C1CCCCC1 [Example 36.5, 4-(2-Cyanopropan-2-yl)-N-[(1S)-1-cyclohexyl-2-(3-hydroxyazetidin-1-yl)ethyl]-N-methylbenzamide] | 1900 nM |

| SMILES | IC50 |
| --- | --- |
| CN(C(=O)c1cc(F)cc(C#N)c1)[C@H](CN1CC(O)C1)C1CCCCC1 [Example 36.6, 3-Cyano-N-[(1S)-1-cyclohexyl-2-(3-hydroxyazetidin-1-yl)ethyl]-5-fluoro-N-methylbenzamide] | 1900 nM |
| CN(C(=O)c1ccc(F)cc1)[C@H](CN1CC(O)C1)C1CCCCC1 [Example 36.7, N-[(1S)-1-Cyclohexyl-2-(3-hydroxyazetidin-1-yl)ethyl]-4-fluoro-N-methylbenzamide] | 1400 nM |
| CN(C(=O)c1ccccc1)[C@H](CN1CC(O)C1)C1CCCCC1 [Example 36.8, N-[(1S)-1-Cyclohexyl-2-(3-hydroxyazetidin-1-yl)ethyl]-N-methylbenzamide] | 1100 nM |
| CCC[C@H](CN1CC(O)C1)N(C)C(=O)c1ccc(Cl)cc1 [Example 37, 4-Chloro-N-[(2R)-1-(3-hydroxyazetidin-1-yl)pentan-2-yl]-N-methylbenzamide] | 9700 nM |
| CCc1ccc(C(=O)N(C)[C@@H](CC(C)C)CN2CC(O)C2)cc1 [Example 38.3, 4-Ethyl-N-[(2S)-1-(3-hydroxyazetidin-1-yl)-4-methylpentan-2-yl]-N-methylbenzamide] | 2100 nM |
| CC(C)C[C@@H](CN1CC(O)C1)N(C)C(=O)c1cccc(C(F)F)c1 [Example 38.4, 3-(Difluoromethyl)-N-[(2S)-1-(3-hydroxyazetidin-1-yl)-4-methylpentan-2-yl]-N-methylbenzamide] | 770 nM |
| COc1cc(C(=O)N(C)[C@@H](CC(C)C)CN2CC(O)C2)ccc1F [Example 38.5, 4-Fluoro-N-[(2S)-1-(3-hydroxyazetidin-1-yl)-4-methylpentan-2-yl]-3-methoxy-N-methylbenzamide] | 4200 nM |
| COc1cc(Cl)ccc1C(=O)N(C)[C@@H](CC(C)C)CN1CC(O)C1 [Example 38.7, 4-Chloro-N-[(2S)-1-(3-hydroxyazetidin-1-yl)-4-methylpentan-2-yl]-2-methoxy-N-methylbenzamide] | 470 nM |
| CSc1ccc(C(=O)N(C)[C@@H](CC(C)C)CN2CC(O)C2)cc1 [Example 38.8, N-[(2S)-1-(3-Hydroxyazetidin-1-yl)-4-methylpentan-2-yl]-N-methyl-4-(methylsulfanyl)benzamide] | 830 nM |
| CN(C(=O)c1ccc(F)cc1Cl)[C@H](CN1CC(O)C1)C1CCC1 [Example 39.1, (S)-2-chloro-N-(1-cyclobutyl-2-(3-hydroxyazetidin-1-yl)ethyl)-4-fluoro-N-methylbenzamide] | 1100 nM |
| CN(C(=O)c1ccc(F)c(F)c1)[C@H](CN1CC(O)C1)C1CCC1 [Example 39.3, (S)—N-(1-Cyclobutyl-2-(3-hydroxyazetidin-1-yl)ethyl)-3,4-difluoro-N-methylbenzamide] | 410 nM |
| CN(C(=O)c1ccc(F)cc1F)[C@H](CN1CC(O)C1)C1CCC1 [Example 39.4, (S)—N-(1-Cyclobutyl-2-(3-hydroxyazetidin-1-yl)ethyl)-2,4-difluoro-N-methylbenzamide] | 7800 nM |
| COc1ccc(C(=O)N(C)[C@H](CN2CC(O)C2)C2CCC2)c(F)c1 [Example 39.5, (S)—N-(1-Cyclobutyl-2-(3-hydroxyazetidin-1-yl)ethyl)-2-fluoro-4-methoxy-N-methylbenzamide] | 1100 nM |
| COc1ccc(C(=O)N(C)[C@H](CN2CC(O)C2)C2CCC2)cc1F [Example 39.6, (S)—N-(1-Cyclobutyl-2-(3-hydroxyazetidin-1-yl)ethyl)-3-fluoro-4-methoxy-N-methylbenzamide] | 480 nM |
| CN(C(=O)c1ccccc1)[C@H](CN1CC(O)C1)C1CCC1 [Example 39.7, (S)—N-(1-Cyclobutyl-2-(3-hydroxyazetidin-1-yl)ethyl)-N-methylbenzamide] | 1400 nM |
| CN(C(=O)c1ccc(C(F)(F)F)cc1)[C@H](CN1CC(O)C1)C1CCC1 [Example 39.8, (S)—N-(1-Cyclobutyl-2-(3-hydroxyazetidin-1-yl)ethyl)-N-methyl-4-(trifluoromethyl)benzamide] | 230 nM |
| COc1ccc(C(=O)N(C)[C@H](CN2CC(O)C2)C2CCC2)cc1C [Example 39.9, (S)—N-(1-Cyclobutyl-2-(3-hydroxyazetidin-1-yl)ethyl)-4-methoxy-N,3-dimethylbenzamide] | 340 nM |

Reference: patent US8361998B2, “Compounds and their use as IKACh blockers” (AstraZeneca AB, priority 2010, dated 2013)
